From patent publication US9290541B2, “TCL1 peptides for immunotherapy” (Board of Regents, The University of Texas System, priority 2011, dated 2016)

Tests used:
CD4+ and CD8+ T cells = assay: Intracellular cytokine assay (IFN-γ) of peptide-stimulated T cell lines; assay type: cell-based, human; conditions: T cell lines from HLA-A2+ normal donors
Description: FIGS. 3A-E: TCL1-specific cytotoxic T cells can be generated from normal donors. (FIG. 3A) PBMCs from HLA-A2^+ normal donors were stimulated with overlapping 15-mer peptides spanning the entire length of the TCL1 protein (see Table 2). T cells from each condition were washed and incubated with autologous CD3-depleted PBMC as antigen-presenting cells (APC) in the presence or absence of the corresponding peptide. After 18 hours, the production of IFN-γ was determined in the supernatants by ELISA. Asterisk indicates significant IFN-γ production compared with control (P<0.05). Representative data from one of three normal donors tested is shown. (FIG. 3B) T cell lines generated from HLA-A2^+ normal donors using TCL165-79 peptide were incubated with APC in the presence or absence of the TCL165-79 peptide or control HIV Gag77-85 peptide, and intracellular cytokine assay was performed. […] IFN-γ production was determined as in (FIG. 3A). […]
Flow cytometry. […] After two washes, samples were acquired on a FACS Calibur (BD Biosciences) and analyzed using Cell Quest Pro (BD Biosciences) or FlowJo (Tree Star, Inc., Ashland, Oreg.) software. […] For tetramer staining, PE-conjugated TCL171-78 tetramer or HIV Gag77-85 tetramer and FITC-conjugated mouse anti-human CD8 antibody were mixed with the cells in 50 μl volume for 30 minutes at room temperature, washed twice, and analyzed by a flow cytometry.

HLA-A2 = molecular target: T1, HLA-A2 (Homo sapiens, UniProt P04439, D140Y/D185E/D98H/E176V/E277Q/G131W/G231S/I119V/I121R/I166T/I218V/L300P/L318F/N151K/N90K/P208A/P217A/Q86G/Q94H/R138H/R169H/T345S); assay: HLA-A2-binding assay (T2 binding index); conditions: T2 cells, 20 μg/ml peptide, 24 hours
T1 construct: endogenous in cells; host or cells: T2 hybridoma cells (TAP-deficient, HLA-A2+)
Description: FIGS. 4A-D: TCL171-78 is the minimal HLA-A*0201-binding peptide. (FIG. 4A) TCL165-79 peptide-specific T cells derived from HLA-A2^+ normal donors were incubated in the presence or absence of T2 cells and TCL165-79 derived truncated peptides (SEQ ID NOS:1-2; SEQ ID NOS:12-17; SEQ ID NOS:3-11; and SEQ ID NO:18) Flu matrix peptide (FMP58-66) and Gag77-85 peptide were used as controls. After 18 hours, the production of IFN-γ was determined in the supernatants by ELISA. (FIG. 4B) T2 cells were incubated with TCL165-79-derived truncated peptides (SEQ ID NOS:1-2; SEQ ID NOS:12-17; SEQ ID NOS:3-11; and SEQ ID NO:18), and the HLA-A2 binding affinity of each peptide was determined by flow cytometry. The T2 binding index was calculated as described in Materials and Methods. […] (FIG. 4D) TCL165-79 peptide-specific CD8^+ T cells or irrelevant T-cell line were stained with TCL171-78 or HIV Gag77-85 tetramers and analyzed by flow cytometry. […]
TAP-deficient T2 cells were incubated with 20 μg/ml of peptides and 3 μg/ml of β2-microglobulin (Sigma-Aldrich, Cat # M4890) for 24 hours at 37° C. and 5% CO2 in air. The cells were then stained with anti-HLA-A2 PE antibody (BD Biosciences, Cat #560168), and the level of HLA-A2 expression was determined by flow cytometry. […]

TQIGPSLLPIMWQLY [TCL165-79]
IFN-γ production by CD4+ and CD8+ T cells in response to peptide (CD4+ and CD8+ T cells): CD8^+ but not CD4^+ T cells produced IFN-γ | binding to HLA-A2 (HLA-A2): bound to TAP-deficient T2 cells
